Laboratory results: patent publication US20070185215A1, “Pharmaceutical composition containing obovatol as an active ingredient for the prevention and treatment of neurodegenerative diseases” (priority 2006, published 2007)

Experiments:
[1] = tested on: BV-2 murine microglial cell line; assay: Inhibition of nitric oxide production in LPS-activated microglia (Griess reaction); assay type: cell-based; details: BV-2 cells, 100 ng/ml LPS, 24 hours
Procedure: (§1) The BV-2 murine microglial cell line, obtained from Prof. Eui-Ju, Choi, School of Life Sciences and Technology in Korea University, Korea, was treated with 100 ng/ml of LPS (lipopolysaccharide), known to activate microglial cells, in the presence of 1 μg/ml or 10 μg/ml obovatol for 24 hours, and then the nitric oxides secreted into the culture media were quantitatively analyzed using a Griess reaction method to determine the activity of the microglia. In detail, 50 μl of the microglial culture medium was reacted with 50 μl of the Griess reagent [1% sulfanilamide/0.1% naphthylethylene diamine dihydrochloride/2% phosphoric acid] at room temperature for 10 min, followed by measuring absorbance at 540 nm with the aid of a microplate reader (Anthos Labtec Instruments GmbH Salzburg, Austria). For comparison, magnolol, known to have a neuroprotective effect, was also tested in the same manner. Using NaNO2 as a standard material, inhibition rates of the test materials were calculated for the production of nitric oxides. Also, MTT assay was conducted to measure cytotoxicity in order to determine whether or not the inhibitory activity against microglial activity was attributed to cytotoxicity.

SD rats = assay: Acute oral toxicity assay in rats; assay type: in vivo
Procedure: Using six-week-old specific pathogen-free (SPF) SD rats, an acute toxicity assay was conducted. The rats were divided into groups of two rats. After being dissolved in injectable saline, the obovatol, obtained in Example 1, was orally administered once in a dosage of 1 g/kg/ml to the rat groups. Afterwards, observations were made of the death, clinical symptoms, and weight changes of the animals, and serological and serobiochemical assays were conducted. Also, an autopsy was carried out to examine abnormalities of the abdominal and thoracic organs with the naked eye.

[2] = Solubility (physical and chemical properties); assay type: physicochemical
[3] = tested on: BV-2 murine microglial cell line; assay: MTT assay for cytotoxicity; assay type: cell-based; details: concentrations as high as 30˜50 μg/ml
Procedure: as §1

Compound: C=CCc1ccc(O)c(-c2cc(CC=C)ccc2O)c1 [Magnolol, magnolol, reference compound]
- inhibition at 1 µg/mL ([1]; Mus musculus, 1 μg/ml compound, read-out: Inhibition Rates (%) of Nitric Oxide Production): 13.1%
- inhibition at 10 µg/mL ([1]; Mus musculus, 10 μg/ml compound, read-out: Inhibition Rates (%) of Nitric Oxide Production): 59%

Compound: obovatol
- Noticeable clinical symptoms or death (SD rats; SD rats, oral, once, 1 g/kg/ml): None of the animals
- Toxicity in weight change, serological assay, serobiochemical assay, autopsy observations (SD rats; SD rats, oral, once, 1 g/kg/ml): not observed
- Dose causing no toxic effects (SD rats; rat, in vivo, po): ≤ 500 mg/kg
- Solubility ([2]; Alcohol, DMSO): Soluble
- Solubility ([2]; Hexane, water): Insoluble
- Inhibition Rates (%) of Nitric Oxide Production ([1]; 1 μg/ml compound): 29.8%
- Inhibition Rates (%) of Nitric Oxide Production ([1]; 10 μg/ml compound): 83.3%
- Cytotoxicity as measured by MTT assay [3]: did not exhibit cytotoxicity
